# According to US10011629B2, “Nucleoside analogs for treatment of the flaviviridae family of viruses and cancer” (Cocrystal Pharma, Inc., priority 2015, dated 2018):
# Experiments:
# [1] = Cellular toxicity assay in PBM cells; format: cell-based; conditions: human; for CC50: read-out: Cytotoxicity, CC50; for cytotoxicity: value in parentheses after CC50, read-out: Cytotoxicity (% inhibition)
# Description: (§1) The toxicity of the compounds was assessed in Vero, human PBM, CEM (human lymphoblastoid), MT-2, and HepG2 cells, as described previously (see Schinazi R. F., Sommadossi J.-P., Saalmann V., Cannon D. L., Xie M.-Y., Hart G. C., Smith G. A. & Hahn E. F. Antimicrob. Agents Chemother. 1990, 34, 1061-67).
# (§2) Cycloheximide was included as positive cytotoxic control, and untreated cells exposed to solvent were included as negative controls. The cytotoxicity IC50 was obtained from the concentration-response curve using the median effective method described previously (see Chou T.-C. & Talalay P. Adv. Enzyme Regul. 1984, 22, 27-55; Belen′kii M. S. & Schinazi R. F. Antiviral Res. 1994, 25, 1-11).
# [2] = Cellular toxicity assay in CEM cells; format: cell-based; conditions: human; for CC50: read-out: Cytotoxicity, CC50; for cytotoxicity: value in parentheses after CC50, read-out: Cytotoxicity (% inhibition)
# Description: as §1, §2
# [3] = Cellular toxicity assay in Vero cells; format: cell-based; conditions: African green monkey; for CC50: read-out: Cytotoxicity, CC50; for cytotoxicity: value in parentheses after CC50, read-out: Cytotoxicity (% inhibition)
# Description: as §1, §2
# [4] = test system: HCV 1b (Huh 7 Clone B cells containing HCV Replicon RNA); experiment: HCV replicon assay; format: cell-based; conditions: HCV 1b replicon; for EC50 / EC90: Hepatitis C virus, Huh-7, letter value; for EC50: read-out: EC50 (μM or letter value); for EC90: read-out: EC90 (μM or letter value) or % inhib HCV
# Description: Huh 7 Clone B cells containing HCV Replicon RNA were seeded in a 96-well plate at 5000 cells/well, and the compounds tested at 10 μM in triplicate immediately after seeding. Following five days incubation (37° C., 5% CO2), total cellular RNA was isolated by using versaGene RNA purification kit from Gentra. Replicon RNA and an internal control (TaqMan rRNA control reagents, Applied Biosystems) were amplified in a single step multiplex Real Time RT-PCR Assay. The antiviral effectiveness of the compounds was calculated by subtracting the threshold RT-PCR cycle of the test compound from the threshold RT-PCR cycle of the no-drug control (ΔCt HCV). A ΔCt of 3.3 equals a 1-log reduction (equal to 90% less starting material) in Replicon RNA levels. The cytotoxicity of the compounds was also calculated by using the ΔCt rRNA values. 2′-C-Me-C was used as the positive control. To determine EC90 and IC50 values^2, ΔCt: values were first converted into fraction of starting material^3 and then were used to calculate the % inhibition. […]
# HepaRG cells = experiment: HepaRG 14-day cell viability assay (CellTiter-Glo); format: cell-based; conditions: 14 days with 4 repeat doses
# Description: IC50 in HepaRG Cells for a 14-Day Assay (Non-Proliferating Liver Cells) Using Cell Titer GLO
# HepaRG cells are plated one week prior to dosing to allow for the cells to regain its maximal metabolic activity and structure. HepaRG cells are dosed with increasing concentrations of the test compound (final DMSO concentration=0.5%); final test compound concentrations of 100, 30, 10, 3, 1, 0.3, 0.1, 0.03 μM for an eight point dose response curve (n=3 replicates per concentration) and the microtissues are incubated for 14 days with 4 repeat doses. Appropriate controls are simultaneously used as quality controls. Following the dosing period the medium is removed the cell viability is determined using CellTiter-Glo® reagent. The test sample is subsequently transferred to designated wells of a white assay plate and the luminescence determined using a luminometer.
# IC50 values are also determined provided a clear dose-response relationship is observed.
# [5] = test system: mitochondrial DNA (COXII gene) in HepG2 cells; experiment: Mitochondrial DNA level in HepG2 cells (real-time PCR); conditions: for % inhibition MitDNA / IC50: HepG2 cells, 14-day assay; for % inhibition MitDNA: 10 μM; for IC50: read-out: IC50 MitDNA
# Description: This assay was used in all studies described in this application that determine the effect of compounds on mitochondrial DNA content. In this assay, low-passage-number HepG2 cells were seeded at 5,000 cells/well in collagen-coated 96-well plates. Test compounds were added to the medium to obtain final concentrations of 0 μM, 0.1 μM, 10 μM and 100 μM. […] The mitochondrial cytochrome c oxidase subunit II (COXII) gene and the ß-actin or rRNA gene were amplified from 5 μl of the eluted nucleic acids using a multiplex Q-PCR protocol with suitable primers and probes for both target and reference amplifications. […] For exon 3 of the ß-actin gene (GenBank accession number E01094) the sense, probe, and antisense primers are 5′-[…]-3′ (SEQ ID NO. 4), 5′-6-[…]-3′ (SEQ ID NO. 5) and 5′-[…]-3′ (SEQ ID NO. 6), respectively. The primers and probes for the rRNA gene are commercially available from Applied Biosystems. […] The arithmetic formula for this approach is given by 2-ΔΔCT, where ΔΔCT is (CT for average target test sample−CT for target control)−(CT for average reference test−CT for reference control) (see Johnson M R, K Wang, J B Smith, M J Heslin, R B Diasio. Quantitation of dihydropyrimidine dehydrogenase expression by real-time reverse transcription polymerase chain reaction. Anal. Biochem. 2000; 278:175-184). A decrease in mitochondrial DNA content in cells grown in the presence of drug indicated mitochondrial toxicity.
# [6] = test system: nuclear DNA (ß-actin or rRNA gene) in HepG2 cells; experiment: Nuclear DNA level in HepG2 cells (real-time PCR); format: cell-based, human; conditions: HepG2 cells, 14-day assay; for % inhibition nDNA: 10 μM; for IC50: read-out: IC50 nDNA
# Description: This assay was used in all studies described in this application that determine the effect of compounds on mitochondrial DNA content. In this assay, low-passage-number HepG2 cells were seeded at 5,000 cells/well in collagen-coated 96-well plates. Test compounds were added to the medium to obtain final concentrations of 0 μM, 0.1 μM, 10 μM and 100 μM. […] The mitochondrial cytochrome c oxidase subunit II (COXII) gene and the ß-actin or rRNA gene were amplified from 5 μl of the eluted nucleic acids using a multiplex Q-PCR protocol with suitable primers and probes for both target and reference amplifications. […] For exon 3 of the ß-actin gene (GenBank accession number E01094) the sense, probe, and antisense primers are 5′-[…]-3′ (SEQ ID NO. 4), 5′-6-[…]-3′ (SEQ ID NO. 5) and 5′-[…]-3′ (SEQ ID NO. 6), respectively. The primers and probes for the rRNA gene are commercially available from Applied Biosystems. […] The comparative CT method uses arithmetic formulas in which the amount of target (COXII gene) is normalized to the amount of an endogenous reference (the B-actin or rRNA gene) and is relative to a calibrator (a control with no drug at day 7). The arithmetic formula for this approach is given by 2-ΔΔCT, where ΔΔCT is (CT for average target test sample−CT for target control)−(CT for average reference test−CT for reference control) (see Johnson M R, K Wang, J B Smith, M J Heslin, R B Diasio. Quantitation of dihydropyrimidine dehydrogenase expression by real-time reverse transcription polymerase chain reaction. Anal. Biochem. 2000; 278:175-184). A decrease in mitochondrial DNA content in cells grown in the presence of drug indicated mitochondrial toxicity.
# HepG2 cells = experiment: Lactic acid production in HepG2 cells; format: cell-based, human; conditions: 14-day assay, 10 μM
# Description: To measure the effects of the compounds on lactic acid production, HepG2 cells from a stock culture were diluted and plated in 12-well culture plates at 2.5×10^4 cells per well. […] […] The culture medium was then filtered, and the lactic acid content in the medium was determined using a colorimetric lactic acid assay (Sigma-Aldrich). Since lactic acid product can be considered a marker for impaired mitochondrial function, elevated levels of lactic acid production detected in cells grown in the presence of test compounds would indicate a drug-induced cytotoxic effect.
molecule,measurement,setting,value
CC(C)OC(=O)[C@H](C)NP(=O)(OC[C@H]1O[C@@H](n2ccc(=O)[nH]c2=O)C(F)(Br)C1O)Oc1ccccc1 (some centres unmarked),CC50,[1],> 100 µM
same,cytotoxicity,[1],-3.8%
same,CC50,[2],> 100 µM
same,cytotoxicity,[2],14%
same,CC50,[3],> 100 µM
same,cytotoxicity,[3],2.6%
CC(C)OC(=O)[C@H](C)N[P@@](=O)(OC[C@H]1O[C@@H](n2ccc(=O)[nH]c2=O)[C@@](F)(Br)C1O)Oc1ccccc1 (some centres unmarked) [Compound 22],EC50,[4],0.1 to 1 µM
same,EC90,[4],1 to 10 µM
same,IC50,"HepaRG cells; Homo sapiens, 336 h",7.18 µM
Tunicamycin [reference compound],IC50,HepaRG cells,0.011 µM
"N#CC(C#N)=NNc1cccc(Cl)c1 [Carbonyl cyanide m-chlorophenyl hydrazone, reference compound]",IC50,"HepaRG cells; Homo sapiens, 336 h",5.08 µM
O=c1ccn([C@@H]2O[C@H](CO)[C@@H](O)[C@]2(F)Br)c(=O)[nH]1,CC50,[1],> 100 µM
same,cytotoxicity,[1],-24%
same,CC50,[2]; CEM lymphoblastoid cells,> 100 µM
same,cytotoxicity,[2]; CEM lymphoblastoid cells,21%
same,CC50,[3],> 100 µM
same,cytotoxicity,[3],4.2%
"Nc1ccn([C@H]2CC[C@@H](CO)O2)c(=O)n1 [ddc, reference compound]",Summary (mitochondrial toxicity),[5],toxic
same,% inhibition MitDNA,[5],99.9%
same,IC50,[5],< 10 µM
same,% inhibition nDNA,[6],88.7%
same,IC50,[6],< 10 µM
same,Lactic acid Production (% of control),HepG2 cells,267 ± 25.2 % of control
"CC(C)OC(=O)[C@H](C)NP(=O)(OC[C@H]1O[C@@H](n2ccc(N)nc2=O)[C@](F)(Br)[C@@H]1O)Oc1ccccc1 (stereo partly drawn) [Compound 21, Isopropyl ((((2R,3R,4R,5R)-5-(4-amino-2-oxopyrimidin-1(2H)-yl)-4-bromo-4-fluoro-3-hydroxytetrahydrofuran-2-yl)methoxy)(phenoxy)phosphoryl)-L-alaninate]",EC50 (μM or letter value): value printed as % @ 10 μM,[4]; 10 μM,67.9% @ 10 μM
"Nc1ccn([C@@H]2CS[C@H](CO)O2)c(=O)n1 [Compound 3TC, reference compound]",% inhibition MitDNA,[5],33.3%
same,IC50,[5],> 10 µM
same,% inhibition nDNA,[6],26.8%
same,IC50,[6],> 10 µM
same,Lactic acid Production (% of control),HepG2 cells,94.9 ± 12.2 % of control
CC(C)OC(=O)[C@H](C)N[P@](=O)(OC[C@H]1O[C@@H](n2ccc(=O)[nH]c2=O)[C@@](F)(Br)C1O)Oc1ccccc1 (some centres unmarked) [Compound 23],EC50,[4],0.1 to 1 µM
same,EC90,[4],0.1 to 1 µM
same,IC50,"HepaRG cells; Homo sapiens, 336 h",35 µM
